Patent US12275684B2, “Methods for making and using endoxifen” (Atossa Therapeutics, Inc., priority 2017, dated 2025)

Experiment: Placebo controlled, dose escalation pharmacokinetic study of oral (Z)-Endoxifen capsules (serum endoxifen; incl. accumulation ratios and dose linearity)
Format: in vivo, human
Set-up: Serum concentration, Maximum / Serum concentration, GeoMean / Serum concentration, Mean / Serum concentration, Median / terminal rate constant: unit not given here
Conditions: for AUC24hr / AUC to last time point / AUC(0-inf): in ng·h/mL
Source text: An objective of the study was to assess the safety and tolerability of oral (Z)-Endoxifen when administered […] orally as a capsule to healthy female volunteers. A secondary objective was to assess the pharmacokinetics of multiple doses of oral (Z)-Endoxifen in the subjects.
Generally, healthy female volunteers aged ≥18 years and ≤65 years were enrolled. 24 participants were enrolled in 3 cohorts and will be administered study drug orally. Three dose levels of orally administered (Z)-Endoxifen were investigated in 3 cohorts. In each cohort participants were randomized to receive an oral (Z)-Endoxifen or placebo in a blinded fashion. Enteric-resistant capsules used in the study were designed as delayed release capsules to resist rupture for at least 30 minutes, but typically, for about 2 hours, under gastric conditions and then open fully in intestinal fluid (DRCaps; Capsugel, a Lonza Company, USA). Enteric-resistant (Swedish Orange size Zero (0); Capsugel, USA) DRCaps capsules manually filled with 1, 2 or 4 mg of (Z)-endoxifen neat in compliance with GMP requirements were used. Placebo capsules contained microcrystalline cellulose an inert common capsule and tablet excipient.
Each cohort enrolled 8 participants, with 6 participants receiving (Z)-Endoxifen 1 mg capsules orally at 1 mg (Cohort 1), 2 mg (Cohort 2) or 4 mg (Cohort 3) doses and 2 participants receiving matching placebo capsules. In Cohort 1 (Dose Level=1 mg) two participants (sentinels) were dosed 24 hours prior to the remaining participants. One sentinel was dosed with (Z)-Endoxifen and the other with placebo. The remaining six participants in Cohort 1 were dosed as no safety concerns were identified in the sentinel participants. The non-sentinel participants in Cohort 1 were admitted to the clinical research facility at least one day later than the sentinels. There were no sentinels in Cohorts 2 and 3.
Participant engagement in this study was for a period of 56 days. These included a 28 day screening period, and a 7 day post treatment period for Pharmacokinetic (PK) sampling. There were two confinement periods, one at the beginning and one at the end of the dosing periods. Participants were confined to the clinical facility on Days-1 through to Day 2 and Days 21 and 22. If participants were to experience any clinically significant adverse events during the study, they would have been required to remain in the clinical facility for further observation at the discretion of the Principal Investigator (PI).
Healthy female volunteers were screened within 28 days prior to commencement of dosing. Participants were admitted to the clinical facility on Day-1 for up to 3 days. The first dose of (Z)-Endoxifen or placebo capsules was administered on Day 1. Following completion of all safety assessments and sampling for PK analyses, participants were discharged from the clinical facility on Day 2. The first dose on Day 1 was followed by a 6-day treatment free period (Days 2-7). Each participant returned to the clinical facility for PK blood draws and safety assessments during the treatment free period on study Days 4 and 6. On Day 8 participants commenced daily administration of (Z)-Endoxifen capsules or placebo capsules for 14 consecutive days (Days 8-21). Participants were supplied with study drug capsules and asked to self administer daily. Participants visited the clinical facility on Days 11, 14 and 17, prior to dose administration, for PK blood draws and safety assessments. On the morning of Day 21 each participant returned to the clinical facility prior to dose administration and were confined to the facility until Day 22 to allow for the collection of PK blood draws and safety assessments. The Day 21 dose was the last administration of study drug. Participants were discharged from the clinical facility on Day 22 and returned for PK blood draws and safety assessments on study Days 24, 26, and 28. […]

[1] = Day 1, dose 4 mg oral, Maximum, N 6
[2] = Day 1, dose 4 mg oral, Minimum, N 6
[3] = Day 21, dose 2 mg oral once daily, GeoMean, N 6
[4] = Day 21, dose 2 mg oral once daily, Maximum, N 6
[5] = Day 21, dose 2 mg oral once daily, Mean, N 6
[6] = Day 21, dose 2 mg oral once daily, Median, N 6
[7] = Day 21, dose 2 mg oral once daily, Minimum, N 6
[8] = Day 21, dose 4 mg oral once daily, GeoMean, N 6
[9] = Day 21, dose 4 mg oral once daily, Maximum, N 6
[10] = Day 21, dose 4 mg oral once daily, Mean, N 6
[11] = Day 21, dose 4 mg oral once daily, Median, N 6
[12] = Day 21, dose 4 mg oral once daily, Minimum, N 6

- CL/F, Min (Day 1, 1 mg, N = 5): 1.35 L/h
- Cmax, Max (Day 1, 1 mg, N = 5): 12.0 ng/mL
- Cmax, Min (Day 1, 1 mg, N = 5): 7.0 ng/mL
- Kel, GeoMean (Day 1, 1 mg, N = 5): 0.015 h⁻¹
- Kel, Max (Day 1, 1 mg, N = 5): 0.018 h⁻¹
- Kel, Mean (Day 1, 1 mg, N = 5): 0.015 h⁻¹
- Kel, Median (Day 1, 1 mg, N = 5): 0.015 h⁻¹
- Kel, Min (Day 1, 1 mg, N = 5): 0.013 h⁻¹
- Thalf, GeoMean (Day 1, 1 mg, N = 5): 45.6 h
- Thalf, Max (Day 1, 1 mg, N = 5): 54.4 h
- Thalf, Mean (Day 1, 1 mg, N = 5): 46.1 h
- Thalf, Median (Day 1, 1 mg, N = 5): 47.2 h
- Thalf, Min (Day 1, 1 mg, N = 5): 37.5 h
- Tmax, Max (Day 1, 1 mg, N = 5): 8.08 h
- Tmax, Min (Day 1, 1 mg, N = 5): 2.0 h
- CL/F, GeoMean (Day 1, 2 mg, N 6): 1.85 L/h
- CL/F, Maximum (Day 1, 2 mg, N 6): 2.65 L/h
- CL/F, Mean (Day 1, 2 mg, N 6): 1.89 L/h
- CL/F, Median (Day 1, 2 mg, N 6): 1.83 L/h
- CL/F, Minimum (Day 1, 2 mg, N 6): 1.34 L/h
- Cmax, Maximum (Day 1, 2 mg, N 6): 22.0 ng/mL
- Cmax, Minimum (Day 1, 2 mg, N 6): 13.0 ng/mL
- Kel, GeoMean (Day 1, 2 mg, N 6): 0.015 h⁻¹
- Kel, Maximum (Day 1, 2 mg, N 6): 0.018 h⁻¹
- Kel, Mean (Day 1, 2 mg, N 6): 0.015 h⁻¹
- Kel, Median (Day 1, 2 mg, N 6): 0.016 h⁻¹
- Kel, Minimum (Day 1, 2 mg, N 6): 0.010 h⁻¹
- Thalf, GeoMean (Day 1, 2 mg, N 6): 47.7 h
- Thalf, Maximum (Day 1, 2 mg, N 6): 68.1 h
- Thalf, Mean (Day 1, 2 mg, N 6): 49.0 h
- Thalf, Median (Day 1, 2 mg, N 6): 44.0 h
- Thalf, Minimum (Day 1, 2 mg, N 6): 37.8 h
- Tmax, Minimum (Day 1, 2 mg, N 6): 3.00 h
- terminal rate constant (Day 1, dose 4 mg oral, GeoMean, N 6): 0.017
- Cmax [1]: 62.0 ng/mL
- Tmax [1]: 10.00 h
- apparent terminal half life (t½) [1]: 56.0 h
- terminal rate constant [1]: 0.022
- AUC24hr [1]: 1116
- AUC to last time point [1]: 3574
- AUC(0-inf) [1]: 4624
- terminal rate constant (Day 1, dose 4 mg oral, Mean, N 6): 0.017
- terminal rate constant (Day 1, dose 4 mg oral, Median, N 6): 0.017
- Cmax [2]: 14.0 ng/mL
- Tmax [2]: 3.00 h
- apparent terminal half life (t½) [2]: 31.6 h
- terminal rate constant [2]: 0.012
- AUC24hr [2]: 258
- AUC to last time point [2]: 691
- AUC(0-inf) [2]: 736
- CL/F, GeoMean (Day 21, 1 mg, N = 5): 2.32 L/h
- CL/F, Maximum (Day 21, 1 mg, N = 5): 4.03 L/h
- CL/F, Mean (Day 21, 1 mg, N = 5): 2.49 L/h
- CL/F, Median (Day 21, 1 mg, N = 5): 1.90 L/h
- CL/F, Minimum (Day 21, 1 mg, N = 5): 1.57 L/h
- Cmax, Maximum (Day 21, 1 mg, N = 5): 34.0 ng/mL
- Cmax, Minimum (Day 21, 1 mg, N = 5): 14.0 ng/mL
- Kel, GeoMean (Day 21, 1 mg, N = 5): 0.013 h⁻¹
- Kel, Maximum (Day 21, 1 mg, N = 5): 0.017 h⁻¹
- Kel, Mean (Day 21, 1 mg, N = 5): 0.014 h⁻¹
- Kel, Median (Day 21, 1 mg, N = 5): 0.014 h⁻¹
- Kel, Minimum (Day 21, 1 mg, N = 5): 0.011 h⁻¹
- Thalf, GeoMean (Day 21, 1 mg, N = 5): 51.7 h
- Thalf, Maximum (Day 21, 1 mg, N = 5): 65.8 h
- Thalf, Mean (Day 21, 1 mg, N = 5): 52.6 h
- Thalf, Median (Day 21, 1 mg, N = 5): 49.3 h
- Thalf, Minimum (Day 21, 1 mg, N = 5): 40.6 h
- Tmax, Maximum (Day 21, 1 mg, N = 5): 8.42 h
- Css (AUCtau/tau) [3]: 37.4 ng/mL
- terminal rate constant [3]: 0.016
- Cmax [4]: 65.0 ng/mL
- Css (AUCtau/tau) [4]: 49.1 ng/mL
- Tmax [4]: 6.05 h
- apparent terminal half life (t½) [4]: 50.8 h
- terminal rate constant [4]: 0.021
- AUC24hr [4]: 1177
- Css (AUCtau/tau) [5]: 38.0 ng/mL
- terminal rate constant [5]: 0.016
- Css (AUCtau/tau) [6]: 37.9 ng/mL
- terminal rate constant [6]: 0.015
- Cmax [7]: 35.0 ng/mL
- Css (AUCtau/tau) [7]: 29.8 ng/mL
- Tmax [7]: 2.00 h
- apparent terminal half life (t½) [7]: 33.0 h
- terminal rate constant [7]: 0.014
- AUC24hr [7]: 716
- Css (AUCtau/tau) [8]: 72.7 ng/mL
- terminal rate constant [8]: 0.016
- Cmax [9]: 178.0 ng/mL
- Css (AUCtau/tau) [9]: 126.4 ng/mL
- Tmax [9]: 10.00 h
- apparent terminal half life (t½) [9]: 54.3 h
- terminal rate constant [9]: 0.020
- AUC24hr [9]: 3034
- Css (AUCtau/tau) [10]: 85.1 ng/mL
- terminal rate constant [10]: 0.016
- Css (AUCtau/tau) [11]: 102.9 ng/mL
- terminal rate constant [11]: 0.015
- Cmax [12]: 42.0 ng/mL
- Css (AUCtau/tau) [12]: 25.7 ng/mL
- Tmax [12]: 2.00 h
- apparent terminal half life (t½) [12]: 34.0 h
- terminal rate constant [12]: 0.013
- AUC24hr [12]: 616
Compound: CC/C(=C(\c1ccc(O)cc1)c1ccc(OCCNC)cc1)c1ccccc1 [(Z)-Endoxifen, (Z)-4-(1-(4-(2-(methylamino)ethoxy)phenyl)-2-phenylbut-1-enyl) phenol]
